Test results as given in patent publication US10787696B2 (priority 2009, dated 2020).

Legend:
Format in all cases: cell-based
[1] = test system: synthetic promoter G5TO4 (tetracycline transcription silencer tTS); conditions: 1 μg/ml tetracycline; culture medium two days post-transfection; HeLa-tTS
[2] = test system: synthetic promoter G5TO4 (tetracycline transcription silencer tTS); conditions: clone #32, 1 μg/ml tetracycline
[3] = test system: synthetic promoter G5TO4 (tetracycline transcription silencer tTS)

## CN(C)[C@@H]1C(O)=C(C(N)=O)C(=O)[C@@]2(O)C(O)=C3C(=O)c4c(O)cccc4[C@@](C)(O)[C@H]3C[C@@H]12 [tetracycline]
[1]
  relative light units (RLU) with tetracycline vs. absence of tetracycline: 16 fold
[2]
  reporter gene activation when tetracycline was added to the culture medium: more than 200 fold
[2]; 96-well microplate, one day
  luciferase activity in medium of cells treated with tetracycline vs. not treated: 200 fold
[3]
  reporter activation by the addition of tetracycline: more than 14 fold
